From patent US20220117938A1, “COMBINATON THERAPY WITH A DON PRODRUG AND AN IMMUNE CHECKPOINT INHIBITOR” (DRACEN PHARMACEUTICALS, INC., priority 2019, published 2022)

Tests used:
[1] = test system: EL4 tumors; assay: Anti-tumor efficacy of Compound 1 with and without anti-PD-1 in the subcutaneous EL4 murine lymphoma model (Example 2C); assay type: in vivo, Mus musculus; conditions: for ILS (%) / MST: endpoint tumor volume 2000 mm^3
Method: Female C57BL/6 mice were inoculated subcutaneously at the right flank with EL4 cells for tumor development. Five days after tumor inoculation, 48 mice with tumor size ranging from 50-76 mm^3 (average tumor size 65 mm^3) were selected and assigned into 6 groups using stratified randomization with 8 mice per group based upon their tumor volumes. The treatments were started from the day of randomization (defined as D0), Group 1 was treated with Vehicle (Tween 80:Ethanol:Saline—5:5:90 v/v/v), s.c., qd×4, Group 2 was treated with anti-PD-1 10 mg/kg i.p. q4d×4, Group 3 was treated with Compound 1 0.3 mg/kg s.c. q.d.×14, Group 4 was treated with Compound 1 0.3 mg/kg s.c. q.d.×14+anti-PD-1 10 mg/kg i.p. q4d×4, Group 5 was treated with Compound 1 1 mg/kg s.c. q.d.×14, Group 6 was treated with Compound 1 1 mg/kg s.c. q.d.×14+anti-PD-1 10 mg/kg i.p. q4d×4. The tumor sizes were measured three times per week during the treatment. The entire study was terminated on D19 after start of the treatment.
Animal Species: Mus musculus; Strain: […]; Age: 6-8 weeks; Sex: female; Body weight (at treatment start): 17-22 g.
The EL4 tumor cells were maintained in vitro as a monolayer culture in DMEM medium supplemented with 10% heat inactivated horse serum and 100 μg/mL penicillin streptomycin at 37° C. in an atmosphere of 5% CO2 in air. The tumor cells were routinely subcultured twice weekly by trypsin-EDTA treatment. The cells growing to a confluency around 70%-80% were harvested and counted for tumor inoculation. The cultured EL4 were harvested, re-suspended in base medium at a density of […] with viability>90%. Each mouse was inoculated subcutaneously at the right flank with 2×10^5 in 0.1 ml base medium for tumor development.
The treatments were started on day 5 after tumor inoculation when the tumor size reached 50-76 mm^3 (average tumor size 65 mm^3). Each group consisted of 8 tumor bearing mice. The testing article was administrated at the dosing volume indicated to the mice according to the predetermined regimen as shown Table 2C-1. Testing article formulations were prepared according to standard procedures. Details regarding tumor measurements and endpoints, and statistical analysis are provided in EXAMPLE 3.
Tumor sizes were measured three times a week in two dimensions using a caliper, and the volume expressed in mm^3 using the formula: V=0.5 a×b^2 where a and b are the long and short diameters of the tumor, respectively. The tumor sizes were then used for the calculations of both tumor growth inhibition (TGI) and T/C values.
TGI is calculated for each group using the formula: […]
TVTreatment_DayN is the average tumor volume of a treatment group on a given day, TVTreatment_Day0 is the average tumor volume of the treatment group on the first day of treatment, TVVehicle_DayN is the average tumor volume of the vehicle control group on a given day, and TVVehicle_Day0 is the average tumor volume of the vehicle group on the first day of treatment.
The T/C value (in percent) is an indication of antitumor effectiveness, T/C (%)=RTVTreatment/RTVControl×100% (RTVTreatment: the mean RTV of the treatment group; RTVControl: the mean RTV of the vehicle treated group). RTV (relative tumor volume)=TVDayN/TVDay0. TVDayN and TVDay0 is the tumor volume on day N and Day 0 respectively. T/C (%)≤42% is considered as significant antitumor activity and <10% is considered as highly significant antitumor activity by the National Cancer Institute criteria.
Animal survival curve: When an individual animal reached to the termination endpoint (TV>2000 mm^3), the mouse was euthanized. The time from treatment initiation to the termination was deemed as its survival time. Survival curve was plotted by Kaplan-Meier method. Median survival time (MST) was calculated for each group. Increase of life span (ILS) was calculated according to the following formula: […]
ILS (%)>25% is considered as a biologically significant survival benefit. […]

[2] = test system: MC-38 tumors; assay: MC-38 re-implantation study in tumor free mice (Example 3); assay type: in vivo, Mus musculus; conditions: for Tumor volume (Mean ± SEM): four tumor free mice of Group 5 (0.7 mpk 5-days ON 2-days OFF x 4 cycles)
Method: Four mice in Group 5 were tumor free on D67 and 1×10^6 MC-38 cells suspended in 100 μL base DMEM were inoculated subcutaneously into the left flank. 5 naïve mice were inoculated with the same inoculation condition as control. The tumor sizes were measured three times per week during the treatment. The study was terminated on D102.
Four mice in Group 5 were tumor free on D67 and 1×10^6 MC-38 cells suspended in 100 μL base DMEM were inoculated subcutaneously into the left flank. 5 naïve mice were inoculated with the same inoculation condition as control.

[3] = 4 cured mice of Group 5 (0.7 mpk) re-implanted with MC-38 cells

With `CC(=O)N[C@@H](Cc1c[nH]c2ccccc12)C(=O)N[C@@H](CCC(=O)C=[N+]=[N-])C(=O)OC(C)C` [Compound 1, Isopropyl (S)-2-((S)-2-acetamido-3-(1H-indol-3-yl)propanamido)-6-diazo-5-oxohexanoate] the “ILS (%)” value ([1]; Compound 1 0.3 mg/kg) was 0%, the “MST” value ([1]; Compound 1 0.3 mg/kg) was 9 days and the “ILS (%)” value ([1]; Compound 1 1 mg/kg) was 35.7%. For the same compound, the “MST” value ([1]; Compound 1 1 mg/kg) was 14 days, the “RTV at day 7” value ([1]; Cpd. 1 0.3 mg/kg) was 21.9 ± 1.51 and the “RTV at day 7” value ([1]; Cpd. 1 1 mg/kg) was 11.2 ± 1.25. The “Tumor volume (Mean ± SEM)” value ([1]; Day 0, Cpd. 1 0.3 mg/kg) was 65 ± 3 mm^3, the “Tumor volume (Mean ± SEM)” value ([1]; Day 0, Cpd. 1 1 mg/kg) was 65 ± 3 mm^3 and the “Tumor volume (Mean ± SEM)” value ([1]; Day 2, Cpd. 1 0.3 mg/kg) was 245 ± 6 mm^3. For the same compound, the “Tumor volume (Mean ± SEM)” value ([1]; Day 2, Cpd. 1 1 mg/kg) was 194 ± 15 mm^3, the “Tumor volume (Mean ± SEM)” value ([1]; Day 5, Cpd. 1 0.3 mg/kg) was 763 ± 29 mm^3 and the “Tumor volume (Mean ± SEM)” value ([1]; Day 5, Cpd. 1 1 mg/kg) was 613 ± 62 mm^3. For the same compound, the T/C ([1]; Day 7, Cpd. 1 0.3 mg/kg) was 73.86%, the TGI ([1]; Day 7, Cpd. 1 0.3 mg/kg) was 28.88% and the “Tumor volume (Mean ± SEM)” value ([1]; Day 7, Cpd. 1 0.3 mg/kg) was 1391 ± 41 mm^3. The T/C ([1]; Day 7, Cpd. 1 1 mg/kg) was 37.76%, the TGI ([1]; Day 7, Cpd. 1 1 mg/kg) was 64.42% and the “Tumor volume (Mean ± SEM)” value ([1]; Day 7, Cpd. 1 1 mg/kg) was 728 ± 96 mm^3. For the same compound, the “Re-implanted cured mice still tumor free on Day 35 after re-implantation” value [2, 3] was “one”, the “Re-implanted cured mice that regrew the tumor” value [2, 3] was “three” and the “Tumor volume (Mean ± SEM)” value ([2]; Day 7 after re-implantation) was 32 ± 14 mm^3. For the same compound, the “Tumor volume (Mean ± SEM)” value ([2]; Day 9 after re-implantation) was 106 ± 44 mm^3, the “Tumor volume (Mean ± SEM)” value ([2]; Day 11 after re-implantation) was 152 ± 55 mm^3 and the “Tumor volume (Mean ± SEM)” value ([2]; Day 14 after re-implantation) was 373 ± 174 mm^3. The “Tumor volume (Mean ± SEM)” value ([2]; Day 16 after re-implantation) was 568 ± 258 mm^3, the “Tumor volume (Mean ± SEM)” value ([2]; Day 18 after re-implantation) was 886 ± 429 mm^3 and the “Tumor volume (Mean ± SEM)” value ([2]; Day 21 after re-implantation) was 1911 ± 794 mm^3.
